Measurements reported in patent publication US9532990B2 (Zhejiang DTRM Biopharma Co. Ltd., priority 2014, dated 2017).
Where two headings read alike, the source gives them in different places.

Target: BTK wild type (Homo sapiens (Human), UniProt Q06187)
Test: Inhibition assay of BTK kinase activity (HTRF)
Format: biochemical
Procedure: Inhibition Assay of BTK Kinase Activity:
The enzyme reaction mixture of BTK wild type standard HTRF assay contained 1 nM BTK wild type, 1 μM biotin-TK1 peptide, and 30 μM ATP in a buffer. The enzyme reaction were carried out at room temperature for 60 minutes. […] The plates were incubated at room temperature for 60 minutes and then read in the Envision plate reader.

[1] = all compounds with IC50 of less 10 nM, read-out: IC50 (BTK)

Sequence of BTK wild type (Q06187 whole entry): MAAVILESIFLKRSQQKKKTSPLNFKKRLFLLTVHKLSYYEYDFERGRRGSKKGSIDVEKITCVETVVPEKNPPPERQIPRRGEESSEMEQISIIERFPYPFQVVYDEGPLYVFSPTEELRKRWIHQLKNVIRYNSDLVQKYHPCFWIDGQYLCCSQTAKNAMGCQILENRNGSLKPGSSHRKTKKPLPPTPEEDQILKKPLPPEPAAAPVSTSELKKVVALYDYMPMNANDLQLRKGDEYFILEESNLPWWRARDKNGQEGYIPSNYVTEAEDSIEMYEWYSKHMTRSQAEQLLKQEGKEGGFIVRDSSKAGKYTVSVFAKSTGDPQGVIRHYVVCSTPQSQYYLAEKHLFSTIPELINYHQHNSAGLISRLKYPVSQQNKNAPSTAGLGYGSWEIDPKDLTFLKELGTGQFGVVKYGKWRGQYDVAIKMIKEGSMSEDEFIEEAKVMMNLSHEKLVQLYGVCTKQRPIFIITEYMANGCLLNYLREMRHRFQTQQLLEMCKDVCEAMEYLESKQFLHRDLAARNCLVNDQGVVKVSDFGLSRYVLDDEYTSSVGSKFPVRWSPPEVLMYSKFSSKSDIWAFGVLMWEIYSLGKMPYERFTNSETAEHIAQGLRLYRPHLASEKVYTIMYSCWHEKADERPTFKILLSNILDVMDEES

Row | SMILES | IC50 (read-out: BTK IC50) | IC50 [1] | IC50
1 | CNC(=O)/C=C/C(=O)N1CCCC(n2nc(-c3ccc(Oc4c(F)c(F)cc(F)c4F)cc3F)c3c(N)ncnc32)C1 (stereo not drawn) [Compound 42, (E)-4-(3-(4-amino-3-(2-fluoro-4-(2,3,5,6-tetrafluorophenoxy)phenyl)-1H-pyrazolo[3,4-d]pyrimidin-1-yl)piperidin-1-yl)-N-methyl-4-oxobut-2-enamide] | 38 nM | – | –
2 | Nc1ncnc2c1c(-c1ccc(Oc3c(F)c(F)cc(F)c3F)cc1F)nn2CCCN1C(=O)C=CC1=O [Compound 38, 1-(3-(4-amino-3-(2-fluoro-4-(2,3,5,6-tetrafluorophenoxy)phenyl)-1H-pyrazolo[3,4-d]pyrimidin-1-yl)propyl)-1H-pyrrole-2,5-dione] | 379 nM | – | –
3 | C=C(C#N)C(=O)N1CCCC(n2nc(-c3ccc(Oc4c(F)c(F)cc(F)c4F)cc3F)c3c(N)ncnc32)C1 (stereo not drawn) [Compound 49, 2-(3-(4-amino-3-(2-fluoro-4-(2,3,5,6-tetrafluorophenoxy)phenyl)-1H-pyrazolo[3,4-d]pyrimidin-1-yl)piperidine-1-carbonyl)acrylonitrile] | 509 nM | – | –
4 | C=CC(=O)N[C@H]1CC[C@H](n2nc(-c3ccc(Oc4cccc(F)c4)cc3F)c3c(N)ncnc32)CC1 [Compound 14, N-((1r,4r)-4-(4-amino-3-(2-fluoro-4-(3-fluorophenoxy)phenyl)-1H-pyrazolo[3,4-d]pyrimidin-1-yl)cyclohexyl)acrylamide] | 9 nM | – | –
5 | Nc1ncnc2c1c(-c1ccc(Oc3c(F)c(F)cc(F)c3F)cc1F)nn2C1CCCN(C(=O)CC(=O)C2CC2)C1 (stereo not drawn) [Compound 67, 1-(3-(4-amino-3-(2-fluoro-4-(2,3,5,6-tetrafluorophenoxy)phenyl)-1H-pyrazolo[3,4-d]pyrimidin-1-yl)piperidin-1-yl)-3-cyclopropylpropane-1,3-dione] | 586 nM | – | –
6 | CC(C)(C)OC(=O)N1CCCC(n2nc(-c3ccc(Oc4ccccc4[N+](=O)[O-])cc3F)c3c(N)ncnc32)C1 (stereo not drawn) [Compound 10, tert-butyl 3-(4-amino-3-(2-fluoro-4-(2-nitrophenoxy)phenyl)-1H-pyrazolo[3,4-d]pyrimidin-1-yl)piperidine-1-carboxylate] | 1970 nM | – | –
7 | COC(=O)NC(=O)/C=C\C(=O)N1CCCC(n2nc(-c3ccc(Oc4c(F)c(F)cc(F)c4F)cc3F)c3c(N)ncnc32)C1 (stereo not drawn) [Compound 47, (Z)-methyl 4-(3-(4-amino-3-(2-fluoro-4-(2,3,5,6-tetrafluorophenoxy)phenyl)-1H-pyrazolo[3,4-d]pyrimidin-1-yl)piperidin-1-yl)-4-oxobut-2-enoylcarbamate] | 6 nM | < 10 nM | –
8 | C=CS(=O)(=O)N1CC[C@@H](n2nc(-c3ccc(Oc4c(F)c(F)cc(F)c4F)cc3F)c3c(N)ncnc32)C1 [Compound 116, 3-(2-fluoro-4-(2,3,5,6-tetrafluorophenoxy)phenyl)-1-((R)-1-(vinylsulfonyl)pyrrolidin-3-yl)-1H-pyrazolo[3,4-d]pyrimidin-4-amine] | 1 nM | < 10 nM | –
9 | Nc1ncnc2c1c(-c1ccc(Oc3c(F)c(F)cc(F)c3F)cc1F)nn2C1CCCN(C(=O)CCl)C1 (stereo not drawn) [Compound 61, 1-(3-(4-amino-3-(2-fluoro-4-(2,3,5,6-tetrafluorophenoxy)phenyl)-1H-pyrazolo[3,4-d]pyrimidin-1-yl)piperidin-1-yl)-2-chloroethanone] | 0.8 nM | < 10 nM | –
10 | Nc1ncnc2c1c(-c1ccc(Oc3c(F)c(F)cc(F)c3F)cc1F)nn2C1CCCN(C(=O)CC(=O)C(F)(F)F)C1 (stereo not drawn) [Compound 65, 1-(3-(4-amino-3-(2-fluoro-4-(2,3,5,6-tetrafluorophenoxy)phenyl)-1H-pyrazolo[3,4-d]pyrimidin-1-yl)piperidin-1-yl)-4,4,4-trifluorobutane-1,3-dione] | 119 nM | – | –
11 | C=CC(=O)N1CC[C@@H](n2nc(-c3ccc(Oc4ccnc5ccccc45)cc3F)c3c(N)ncnc32)C1 [Compound 90, 1-((R)-3-(4-amino-3-(2-fluoro-4-(quinolin-4-yloxy)phenyl)-1H-pyrazolo[3,4-d]pyrimidin-1-yl)pyrrolidin-1-yl)prop-2-en-1-one] | 15 nM | – | –
12 | Nc1ncnc2c1c(-c1ccc(Oc3c(F)c(F)cc(F)c3F)cc1F)nn2C1CCCN(C(=O)C2CNC(=O)S2)C1 (stereo not drawn) [Compound 63, 5-(3-(4-amino-3-(2-fluoro-4-(2,3,5,6-tetrafluorophenoxy)phenyl)-1H-pyrazolo[3,4-d]pyrimidin-1-yl)piperidine-1-carbonyl)thiazolidin-2-one] | 454 nM | – | –
13 | Nc1ncnc2c1c(-c1ccc(Oc3c(F)c(F)cc(F)c3F)cc1F)nn2[C@@H]1CCN(C(=O)C(=O)O)C1 [Compound 117, 2-((R)-3-(4-amino-3-(2-fluoro-4-(2,3,5,6-tetrafluorophenoxy)phenyl)-1H-pyrazolo[3,4-d]pyrimidin-1-yl)pyrrolidin-1-yl)-2-oxoacetic acid] | 712 nM | – | –
14 | C=CC(=O)N1CCCC(n2nc(-c3ccc(C(=O)c4cccc(F)c4)c(F)c3)c3c(N)ncnc32)C1 (stereo not drawn) [Compound 3, 1-(3-(4-amino-3-(3-fluoro-4-(3-fluorobenzoyl)phenyl)-1H-pyrazolo[3,4-d]pyrimidin-1-yl)piperidin-1-yl)prop-2-en-1-one] | 10 nM | – | –
15 | C=CC(=O)NC(C)(C)Cn1nc(-c2ccc(Oc3c(F)c(F)cc(F)c3F)cc2F)c2c(N)ncnc21 [Compound 87, N-(1-(4-amino-3-(2-fluoro-4-(2,3,5,6-tetrafluorophenoxy)phenyl)-1H-pyrazolo[3,4-d]pyrimidin-1-yl)-2-methylpropan-2-yl)acrylamide] | 8 nM | – | < 10 nM
16 | Nc1ncnc2c1c(-c1ccc(Oc3c(F)c(F)cc(F)c3F)cc1F)nn2C1CCCN(C(=O)c2c[nH]cn2)C1 (stereo not drawn) [Compound 59, (3-(4-amino-3-(2-fluoro-4-(2,3,5,6-tetrafluorophenoxy)phenyl)-1H-pyrazolo[3,4-d]pyrimidin-1-yl)piperidin-1-yl)(1H-imidazol-4-yl)methanone] | 174 nM | – | –
17 | NC(=O)/C=C/C(=O)N1CCCC(n2nc(-c3ccc(Oc4c(F)c(F)cc(F)c4F)cc3F)c3c(N)ncnc32)C1 (stereo not drawn) [Compound 41, (E)-4-(3-(4-amino-3-(2-fluoro-4-(2,3,5,6-tetrafluorophenoxy)phenyl)-1H-pyrazolo[3,4-d]pyrimidin-1-yl)piperidin-1-yl)-4-oxobut-2-enamide] | 17 nM | – | –
18 | C=C(CN1CCCC(n2nc(-c3ccc(Oc4c(F)c(F)cc(F)c4F)cc3F)c3c(N)ncnc32)C1)C(=O)NC (stereo not drawn) [Compound 69, 2-((3-(4-amino-3-(2-fluoro-4-(2,3,5,6-tetrafluorophenoxy)phenyl)-1H-pyrazolo[3,4-d]pyrimidin-1-yl)piperidin-1-yl)methyl)-N-methylacrylamide] | 52 nM | – | –
19 | C=CC(=O)N(C)CCn1nc(-c2ccc(Oc3c(F)c(F)cc(F)c3F)cc2F)c2c(N)ncnc21 [Compound 85, N-(2-(4-amino-3-(2-fluoro-4-(2,3,5,6-tetrafluorophenoxy)phenyl)-1H-pyrazolo[3,4-d]pyrimidin-1-yl)ethyl)-N-methylacrylamide] | 17 nM | – | –
20 | CNC(=O)CN1CCCC(n2nc(-c3ccc(Oc4c(F)c(F)cc(F)c4F)cc3F)c3c(N)ncnc32)C1 (stereo not drawn) [Compound 56, 2-(3-(4-amino-3-(2-fluoro-4-(2,3,5,6-tetrafluorophenoxy)phenyl)-1H-pyrazolo[3,4-d]pyrimidin-1-yl)piperidin-1-yl)-N-methylacetamide] | 365 nM | – | –
21 | C=CC(=O)N1CC[C@@H](n2nc(-c3ccc(Oc4ncccn4)cc3F)c3c(N)ncnc32)C1 [Compound 95, 1-((R)-3-(4-amino-3-(2-fluoro-4-(pyrimidin-2-yloxy)phenyl)-1H-pyrazolo[3,4-d]pyrimidin-1-yl)pyrrolidin-1-yl)prop-2-en-1-one] | 5 nM | < 10 nM | –
22 | CN(C)C/C=C/C(=O)N1CC[C@@H](n2nc(-c3ccc(Oc4c(F)c(F)cc(F)c4F)cc3F)c3c(N)ncnc32)C1 [Compound 91, (E)-1-((R)-3-(4-amino-3-(2-fluoro-4-(2,3,5,6-tetrafluorophenoxy)phenyl)-1H-pyrazolo[3,4-d]pyrimidin-1-yl)pyrrolidin-1-yl)-4-(dimethylamino)but-2-en-1-one] | 3 nM | < 10 nM | –
23 | Nc1ncnc2c1c(-c1ccc(Oc3c(F)c(F)cc(F)c3F)cc1F)nn2[C@@H]1CCN(C(=O)CCl)C1 [Compound 75, 1-((R)-3-(4-amino-3-(2-fluoro-4-(2,3,5,6-tetrafluorophenoxy)phenyl)-1H-pyrazolo[3,4-d]pyrimidin-1-yl)pyrrolidin-1-yl)-2-chloroethanone] | 3 nM | – | < 10 nM
24 | C=CC(=O)N[C@H]1CC[C@@H](n2nc(-c3ccc(Oc4cccc(F)c4)cc3F)c3c(N)ncnc32)C1 [Compound 17, N-((1s,3r)-3-(4-amino-3-(2-fluoro-4-(3-fluorophenoxy)phenyl)-1H-pyrazolo[3,4-d]pyrimidin-1-yl)cyclopentyl)acrylamide] | 4 nM | < 10 nM | –
25 | C=CC(=O)N(C)CCCn1nc(-c2ccc(Oc3c(F)c(F)cc(F)c3F)cc2F)c2c(N)ncnc21 [Compound 86, N-(3-(4-amino-3-(2-fluoro-4-(2,3,5,6-tetrafluorophenoxy)phenyl)-1H-pyrazolo[3,4-d]pyrimidin-1-yl)propyl)-N-methylacrylamide] | 8 nM | – | –
26 | C=CC(=O)N1CCCC(n2nc(-c3ccc(Oc4cccc(F)c4[N+](=O)[O-])cc3F)c3c(N)ncnc32)C1 (stereo not drawn) [Compound 12, 1-(3-(4-amino-3-(2-fluoro-4-(3-fluoro-2-nitrophenoxy)phenyl)-1H-pyrazolo[3,4-d]pyrimidin-1-yl)piperidin-1-yl)prop-2-en-1-one] | 2 nM | < 10 nM | –
27 | Nc1ncnc2c1c(-c1ccc(Oc3c(F)c(F)cc(F)c3F)cc1F)nn2[C@H]1CCCN(C(=O)C(Cl)Cl)C1 [Compound 102, 1-((S)-3-(4-amino-3-(2-fluoro-4-(2,3,5,6-tetrafluorophenoxy)phenyl)-1H-pyrazolo[3,4-d]pyrimidin-1-yl)piperidin-1-yl)-2,2-dichloroethanone] | 1600 nM | – | –
